Laboratory results taken from patent publication US20210323985A1, “SHIELDING AGENTS AND THEIR USE” (ENDOCYTE, INC., priority 2018, published 2021).

What was measured:
[1] = system: LNCaP tumors; assay: Biodistribution of Ia-Lu with or without co-administered shielding agent in nude mice bearing LNCaP tumors; type: in vivo; details: 4 hours; 30 nmol/kg Ia-Lu; co-administration of 1 μmol/kg shielding agent, vs Ia-Lu alone; FIG. 9
Experimental: FIG. 9 is a chart showing the biodistribution at 4 hours in nude mice bearing LNCaP tumors at 30 nmol/kg of Ia-Lu with or without co-administration of 1 μmol/kg of a shielding agent. […] In the graph for each tissue Ia-Lu alone (left bar), Ia-Lu+compound 1m (middle bar), Ia-Lu+compound 1d (S-enantiomer) (right bar).
(§1) The shielding agents of the present disclosure were administered in combination with an imaging agent of the disclosure, and the biodistribution was analyzed.

[2] = system: 22RV1 tumors; assay: Biodistribution of 99mTc imaging conjugate 3a co-administered with a shielding agent in nude mice bearing 22RV1 tumors; type: in vivo; details: 4 hours; 30 nmol/kg 99mTc imaging conjugate 3a; co-administration of 1 μmol/kg shielding agent; FIG. 8
Experimental: FIG. 8 is a chart showing the biodistribution at 4 hours in nude mice bearing 22RV1 tumors at 30 nmol/kg of ^99mTC imaging conjugate 3a with co-administration of 1 μmol/kg of a shielding agent. […] In the graph for each tissue ^99mTC imaging conjugate 3a+compound 1d (S-enantiomer) (left bar), ^99mTC imaging conjugate 3a+compound 1d (R-enantiomer) (right bar).
as §1

Row | SMILES | Ia-Lu tumor to kidney ratio [1] | 99mTc imaging conjugate 3a tumor to kidney ratio [2] | activity of shielding agent (comparison of enantiomers) [2]
1 | CCCCOC(=O)CC[C@H](NC(=O)N[C@@H](CCC(=O)O)C(=O)O)C(=O)O [Compound 1m] | enhanced | – | –
2 | CCCCCCCCCCCCOC(=O)CC[C@@H](CP(=O)(O)O)C(=O)O [1d (S-enantiomer)] | enhanced | enhanced | more active than the R-enantiomer
